Read-outs that look alike come from different tables or passages of the source.
Tests used:
[1] = system: Interleukin-2 (IL-2) production/release; assay: Jurkat IL-2 Production Assay; type: cell-based; conditions: Homo sapiens; Jurkat T cells clone E6-1, 15 μg/ml PHA for 22 hours, IL-2 in supernatant
Description: Jurkat IL-2 Production Assay
The effect of compounds of the invention on Interleukin-2 (IL-2) production/release was tested in the Jurkat T cell line (ECACC) clone E6-1.
Jurkat T cells were cultured in DMEM/F12/Glutamax (Gibco) containing 10% FCS (Gibco), and maintained at 37° C., 5% CO2. Cell were split twice a week [5*10^6 (Mon-Thu) and 1*10^7 (Thu-Mon) cells/50 ml medium in T-175 ZK culture flasks, respectively].
Prior to experiment, cells were seeded on 96 well plates (Cellstar 96 Well; Cat No. 655180, Greiner bio-one) at a density of 5*10^5 cells/well in DMEM/F12/Glutamax (Gibco) containing 10% FCS (Gibco), and incubated for 60 min at 37° C., 5% CO2. Subsequently, compounds were added and cells were allowed to incubate for 30 min at 37° C., 5% CO2. Cells were then stimulated with 15 μg/ml Phytohemagglutinin (PHA; Sigma) for 22 hours at 37° C., 5% CO2.
Before sampling of the supernatants, cells were spun down (200*g/5 min/RT). The amount of IL-2 released into the supernatant was quantified with the human IL-2 AlphaLisa kit (Perkin Elmer) according to manufacturer's instructions. Luminescence proximity measurements were carried out in the Synergy H4 reader (BioTek) employing the fluorescence setting of the reader (ex: 680/30 nm; em: 620/40 nm).
Inhibition of IL-Production/Release in/from Jurkat T Cells was Quantified as Follows:
Zero percent inhibition (MAX) was defined as the [IL-2] determined in supernatants derived from cells to which PHA & DMSO-only had been added instead of compound. Hundred percent inhibition (MIN) was defined as the [IL-2] determined in supernatants derived from cells that had been pre-treated with 1 μM CyclosporineA (Sigma) before the addition of 15 μg/ml PHA.
For routine IC50 determinations of compounds, 8 concentrations of a serial dilution (1:3.16) were tested, starting off from 10 μM.

CRAC channel = target: T1, CRAC channel (Homo sapiens, UniProt Q96D31); assay: HEK Calcium Influx Assay (FLIPR); type: cell-based
T1 construct: host or cells: HEK293
Description: The effect of compounds of the invention on intracellular [Ca^2+] was tested in the HEK293 cell line (ECACC).
HEK293 cells were cultured in DMEM/F12/Glutamax (Gibco) containing 10% FCS (Gibco), and maintained at 37° C., 5% CO2. Cell were split twice a week [3*10^6 (Mon-Thu) and 1*10^6 (Thu-Mon) cells/50 ml medium in T-175 ZK culture flasks, respectively]. Twenty four hours pre-experiment, cells were seeded on 96 well plates (Poly-D-Lysine 96well Black/Clear Plate, BD Biocoat REF 356640) at a density of 40,000 cells/well in DMEM/F12 (Gibco) containing 10% FCS (Gibco), and maintained at 37° C., 5% CO2.
Prior to store-depletion, cell culture medium was removed and cells were loaded with the a Calcium-sensitive fluorescent dye comprised within the Calcium-4-assay kit (Molecular Devices) in nominally Ca^2+-free HBS buffer (140 mM NaCl, 4 mM KCl, 0.2 mM MgCl2, 11 mM D-glucose, and 10 mM HEPES, pH 7.4) according to manufacturer's instruction for 60 min at 37° C., 5% CO2.
Passive depletion of intracellular Ca^2+-stores was then triggered by employing the SERCA inhibitor thapsigargin (2 μM final) for 10 min in the dark (RT). To prevent immediate Ca^2+-entry via the activated Store-operated channels (SOCs), cells were maintained in Ca^2+-free HBS buffer comprising 100 μM EGTA during store-depletion.
Intracellular changes in [Ca^2+] were subsequently monitored with the FLIPR device (Molecular Devices). In brief, baseline imaging post-store depletion was allowed for 1 min before adjusting the extracellular buffer to 3 mM CaCl2. Increases in intracellular [Ca^2+] due to pre-activated SOC channels were monitored for 15 min until intracellular Ca^2+ levels had declined into a steady-state. Finally, compounds were administered and Ca^2+ signals were recorded for additional 10 min.
Inhibition of endogenous SOC in HEK293 cells was quantified employing the average Ca^2+ signal measured from 9.5-10 min post-administration. Zero percent inhibition (MAX) was defined as the Ca^2+ signal recorded from wells to which DMSO-only had been added instead of compound. Hundred percent inhibition (MIN) was defined as the signal obtained from wells in which cells haven't been treated with TG prior to Ca^2+ addition and to which DMSO-only had been added instead of compound. For routine IC50 determinations of compounds, 8 concentrations of a serial dilution (1:3.16) were tested, starting off from 10 μM. Reliable IC50's could consequently be determined only, if they were at least sub 2.5-3 μM.

[2] = 10 μM, endogenous SOC in HEK293 cells, thapsigargin store depletion, Ca2+ signal 9.5-10 min post-administration, read-out: % inhib.[@ 10 μM] FLIPR

T1 sequence (Q96D31 whole entry): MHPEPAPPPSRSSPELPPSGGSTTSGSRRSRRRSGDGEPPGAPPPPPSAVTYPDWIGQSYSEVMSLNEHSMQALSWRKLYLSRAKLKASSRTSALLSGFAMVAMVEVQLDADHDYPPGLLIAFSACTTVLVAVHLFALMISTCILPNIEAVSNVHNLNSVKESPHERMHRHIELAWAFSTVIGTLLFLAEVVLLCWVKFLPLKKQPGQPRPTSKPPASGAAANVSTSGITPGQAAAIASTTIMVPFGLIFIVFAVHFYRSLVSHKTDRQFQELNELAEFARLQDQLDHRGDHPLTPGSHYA

Compound: CNc1c(C(=O)Nc2c(F)cncc2F)nn(C)c1-c1cc(OC)ccc1OC [Example 67, N-(3,5-Difluoro-pyridin-4-yl)-5-(2,5-dimethoxyphenyl)-1-methyl-4-methylamino-1H-pyrazole-3-carboxylic acid amide]
- IC50 [1]: 1 to 5 µM
- inhibition at 10 µM (CRAC channel; [2]): < 50%

Compound: Cn1nc(C(=O)Nc2c(F)cccc2F)cc1-c1ccccc1C(F)(F)F [Example 7, N-(2,6-Difluoro-phenyl)-1-methyl-5-[2-(trifluoromethyl)-phenyl]-1H-pyrazole-3-carboxylic acid amide]
- IC50 [1]: 0.5 to 1 µM
- inhibition at 10 µM (CRAC channel; [2]): > 70%

Compound: COc1ccc(OC)c(-c2c(CO)c(C(=O)Nc3c(F)cccc3F)nn2C)c1 [Example 43, N-(2,6-Difluoro-phenyl)-5-(2,5-dimethoxyphenyl)-4-(hydroxymethyl)-1-methyl-1H-pyrazole-3-carboxylic acid amide]
- IC50 [1]: 1 to 5 µM
- inhibition at 10 µM (CRAC channel; [2]): < 50%

Compound: COc1ccc(OC)c(-c2cc(C(=O)Nc3c(C)cccc3F)nn2C)c1 [Example 32, 5-(2,5-Dimethoxyphenyl)-N-(2-fluoro-6-methyl-phenyl)-1-methyl-1H-pyrazole-3-carboxylic acid amide]
- IC50 [1]: < 0.5 µM
- inhibition at 10 µM (CRAC channel; [2]): > 70%

Compound: COc1ccc(OC)c(-c2cc(C(=O)Nc3cnccc3C)nn2C)c1 [Example 16, 5-(2,5-Dimethoxyphenyl)-1-methyl-N-(4-methyl-pyridin-3-yl)-1H-pyrazole-3-carboxylic acid amide]
- IC50 [1]: 1 to 5 µM
- inhibition at 10 µM (CRAC channel; [2]): > 70%

Compound: Cn1nc(C(=O)Nc2ccncc2F)cc1-c1cc(OC(F)(F)F)ccc1C1CC1 [Example 47, 5-[2-Cyclopropyl-5-(trifluoromethyloxy)-phenyl]-N-(3-fluoro-pyridin-4-yl)-1-methyl-1H-pyrazole-3-carboxylic acid amide]
- IC50 [1]: 1 to 5 µM
- inhibition at 10 µM (CRAC channel; [2]): > 70%

Compound: COc1ccccc1-c1cc(C(=O)Nc2c(F)cccc2F)nn1C [Example 1, N-(2,6-Difluoro-phenyl)-5-(2-methoxyphenyl)-1-methyl-1H-pyrazole-3-carboxylic acid amide]
- IC50 [1]: 1 to 5 µM
- inhibition at 10 µM (CRAC channel; [2]): > 70%

Compound: Cn1nc(C(=O)Nc2ccncc2F)cc1-c1ccc(OC(F)(F)F)cc1Cl [Example 11, 5-[2-Chloro-4-(trifluoromethyloxy)-phenyl]-N-(3-fluoro-pyridin-4-yl)-1-methyl-1H-pyrazole-3-carboxylic acid amide]
- inhibition at 10 µM (CRAC channel; [2]): 50 to 70%

Compound: COc1ccc(-c2cc(C(=O)Nc3ccncc3F)nn2C)c(C)c1 [Example 24, N-(3-Fluoro-pyridin-4-yl)-5-(4-methoxy-2-methyl-phenyl)-1-methyl-1H-pyrazole-3-carboxylic acid amide]
- inhibition at 10 µM (CRAC channel; [2]): > 70%

Compound: Cc1ccc(C(F)(F)F)cc1-c1cc(C(=O)Nc2ccncc2F)nn1C [Example 29, N-(3-Fluoro-pyridin-4-yl)-1-methyl-5-[2-methyl-5-(trifluoromethyl)-phenyl]-1H-pyrazole-3-carboxylic acid amide]
- inhibition at 10 µM (CRAC channel; [2]): 50 to 70%

Compound: CCn1nc(C(=O)Nc2c(F)cccc2F)cc1-c1cc(OC)ccc1OC [Example 37, N-(2,6-Difluoro-phenyl)-5-(2,5-dimethoxyphenyl)-1-ethyl-1H-pyrazole-3-carboxylic acid amide]
- inhibition at 10 µM (CRAC channel; [2]): 50 to 70%

Compound: Cn1nc(C(=O)Nc2c(F)cccc2F)cc1-c1cc(C(F)(F)F)ccc1C#N [Example 38, 5-[2-Cyano-5-(trifluoromethyl)-phenyl]-N-(2,6-difluoro-phenyl)-1-methyl-1H-pyrazole-3-carboxylic acid amide]
- inhibition at 10 µM (CRAC channel; [2]): 50 to 70%

Compound: Cc1ccc(Cl)cc1-c1cc(C(=O)Nc2ccncc2F)nn1C [Example 23, 5-(5-Chloro-2-methyl-phenyl)-N-(3-fluoro-pyridin-4-yl)-1-methyl-1H-pyrazole-3-carboxylic acid amide]
- inhibition at 10 µM (CRAC channel; [2]): 50 to 70%

Compound: Cn1nc(C(=O)Nc2ccc(F)cc2F)cc1-c1c(F)cccc1C(F)(F)F [Example 55, N-(2,4-Difluoro-phenyl)-5-[2-fluoro-6-(trifluoromethyl)-phenyl]-1-methyl-1H-pyrazole-3-carboxylic acid amide]
- inhibition at 10 µM (CRAC channel; [2]): 50 to 70%

Compound: Cn1nc(C(=O)Nc2ccc(Cl)cc2Cl)cc1-c1c(F)cccc1C(F)(F)F [Example 57, N-(2,4-Dichlorophenyl)-5-[2-fluoro-6-(trifluoromethyl)-phenyl]-1-methyl-1H-pyrazole-3-carboxylic acid amide]
- inhibition at 10 µM (CRAC channel; HEK293, read-out: % inhib.[@ 10 μM] FLIPR): 50 to 70%

Compound: Cc1cncc(F)c1NC(=O)c1cc(-c2c(F)cccc2F)n(C)n1 [Example 53, 5-(2,6-Difluoro-phenyl)-N-(3-fluoro-5-methyl-pyridin-4-yl)-1-methyl-1H-pyrazole-3-carboxylic acid amide]
- inhibition at 10 µM (CRAC channel; [2]): 50 to 70%

Compound: COc1ccc(OC)c(-c2cc(C(=O)Nc3ccc(S(C)(=O)=O)cc3F)nn2C)c1 [Example 13, 5-(2,5-Dimethoxyphenyl)-N-(2-fluoro-4-methylsulfonyl-phenyl)-1-methyl-1H-pyrazole-3-carboxylic acid amide]
- inhibition at 10 µM (CRAC channel; [2]): 50 to 70%

Compound: Cc1cccc(F)c1NC(=O)c1cc(-c2c(F)cccc2C(F)(F)F)n(C)n1 [Example 59, N-(2-Fluoro-6-methyl-phenyl)-5-[2-fluoro-6-(trifluoromethyl)-phenyl]-1-methyl-1H-pyrazole-3-carboxylic acid amide]
- inhibition at 10 µM (CRAC channel; [2]): > 70%

Compound: Cn1nc(C(=O)Nc2ccncc2F)cc1-c1c(F)cccc1C(F)(F)F [Example 62, N-(3-Fluoro-pyridin-4-yl)-5-[2-fluoro-6-(trifluoromethyl)-phenyl]-1-methyl-1H-pyrazole-3-carboxylic acid amide]
- inhibition at 10 µM (CRAC channel; [2]): > 70%

Compound: Cc1ccncc1-c1cc(C(=O)Nc2c(C)cncc2F)nn1C [Example 65, N-(3-Fluoro-5-methyl-pyridin-4-yl)-1-methyl-5-(4-methyl-pyridin-3-yl)-1H-pyrazole-3-carboxylic acid amide]
- inhibition at 10 µM (CRAC channel; [2]): > 70%

Compound: COc1ccc(OC)c(-c2cc(C(=O)Nc3c(F)cccc3F)n[nH]2)c1 [Example 41, N-(2,6-Difluoro-phenyl)-5-(2,5-dimethoxyphenyl)-1H-pyrazole-3-carboxylic acid amide]
- inhibition at 10 µM (CRAC channel; [2]): > 70%

Compound: Cn1nc(C(=O)Nc2ccccc2C#N)cc1-c1c(F)cccc1C(F)(F)F [Example 56, N-(2-Cyano-phenyl)-5-[2-fluoro-6-(trifluoromethyl)-phenyl]-1-methyl-1H-pyrazole-3-carboxylic acid amide]
- inhibition at 10 µM (CRAC channel; [2]): 50 to 70%

Compound: COc1ccc(OC)c(-c2c(N)c(C(=O)Nc3ccncc3F)nn2C)c1 [Example 48, 4-Amino-5-(2,5-dimethoxyphenyl)-N-(3-fluoro-pyridin-4-yl)-1-methyl-1H-pyrazole-3-carboxylic acid amide]
- inhibition at 10 µM (CRAC channel; [2]): > 70%

Compound: Cn1nc(C(=O)Nc2ccccc2F)cc1-c1c(F)cccc1C(F)(F)F [Example 61, N-(2-Fluorophenyl)-5-[2-fluoro-6-(trifluoromethyl)-phenyl]-1-methyl-1H-pyrazole-3-carboxylic acid amide]
- inhibition at 10 µM (CRAC channel; [2]): > 70%

Reference: patent publication US9078899B2, “Pyrazolyl-based carboxamides II” (Grünenthal GmbH, priority 2013, dated 2015)
